The results in this text go back to patent US20120178815A1, “Compositions of (-)-E-10-OH-NT and Methods for Their Synthesis and Use” (Adolor Corporation, priority 2007, published 2012).

A word on the Ki: it is a measure of affinity in units of concentration, obtained from inhibition or displacement. What is called IC50 is the point on the concentration scale where inhibition reaches its midpoint.

Series [1] has as its system L5 SNL rats, tactile allodynia. In words: L5-Single Nerve Ligation model of neuropathic pain (von Frey). It counts as in vivo, rat. The following applies: 30 mg/kg; for antiallodynic activity: i.p. Here is the method: Protocol. […] The test animals were placed in a Plexiglas chamber (10 cm×20 cm×25 cm) and habituated for 15 minutes. The chamber was positioned on top of a mesh screen so that von Frey monofilaments could be presented to the plantar surface of both hindpaws. Measurement of tactile sensitivity for each hindpaw were obtained using the up/down method (Dixon, 1980) with seven Frey monofilaments (0.4, 1, 2, 4, 6, 8 and 15 grams). Each trial started with a von Frey force of 2 grams delivered to the right hindpaw for approximately 1-2 seconds and then the left hindpaw. If there was no withdrawal response, the next higher force was delivered. If there was a response, the next lower force was delivered. This procedure was performed until no response was made at the highest force (15 grams) or until four stimuli were administered following the initial response. Each test group contained 8 animals. The sham-operated control group, which were operated on but not subject to nerve ligation, contained 4 animals. All animals were tested at 60 minutes, and 240 minutes, post-administration of test compounds.
The 50% paw withdrawal threshold for each paw was calculated using the following formula: [Xth] log=[vFr] log+ky where [vFr] is the force of the last von Frey used, k=0.2249 which is the average interval (in log units) between the von Frey monofilaments, and y is a value that depends upon the pattern of withdrawal responses (Dixon, 1980). […] Testing for tactile sensitivity was performed twice and the mean 50% withdrawal value assigned as the tactile sensitivity for the right and left paws for each animal.
The E-10-OH-NT compounds were administered as either a maleate or succinate salt. AT was administered as a hydrochloride salt. Dosage amounts are based on the amount of free base. The test animals were placed in a Plexiglas chamber (10 cm×20 cm×25 cm) and habituated for 15 minutes. The chamber was positioned on top of a mesh screen so that von Frey monofilaments could be presented to the plantar surface of both hindpaws. Measurement of tactile sensitivity for each hindpaw were obtained using the up/down method (Dixon, 1980) with seven Frey monofilaments (0.4, 1, 2, 4, 6, 8 and 15 grams). Each trial started with a von Frey force of 2 grams delivered to the right hindpaw for approximately 1-2 seconds and then the left hindpaw. If there was no withdrawal response, the next higher force was delivered. If there was a response, the next lower force was delivered. This procedure was performed until no response was made at the highest force (15 grams) or until four stimuli were administered following the initial response. Each test group contained 8 animals. The sham-operated control group, which were operated on but not subject to nerve ligation, contained 4 animals. […]

Series [2] has as its target human NE transporter (hNET) (Homo sapiens, UniProt P23975). The experiment in a line: NE transporter competitive binding assay, [3H]nisoxetine. How it is done:
(§1) Protocol. […] Bound radioactivity was determined by scintillation spectroscopy. Non-specific binding was defined as the amount of binding that occurred in the presence of 1.0 μM desipramine. The Ki values of the various test compounds were determined using standard methods.
as §1

The target of series [3] is T1, human muscarinic receptor M1 (Homo sapiens, UniProt P11229).
T1 construct: expressed in transfected cells; host or cells: CHO cells (membranes)
The experiment in a line: Muscarinic M1 receptor binding, [3H]pirenzepine. The following applies: read-out: Affinity for Muscarinic Receptors, M1, Ki. How it is done: Protocol. […] Bound radioactivity was determined by scintillation spectroscopy. Non-specific binding was defined as the amount of bound radioligand in the presence of 1.0 μM atropine. Radioligand for the M1 receptor was [^3H]pirenzepine (2 nM). Radioligand for the M2 receptor was [^3H]AF-DX384 (2 nM). Radioligand for the M3, M4, and M5 receptors was [^3H]4-DAMP.

The target of a further series is T2, α2b adrenergic receptor (Homo sapiens, UniProt P18089).
T2 construct: expressed in transfected cells; host or cells: CHO cells
In words: α2b adrenergic receptor binding, [3H]RX821002. The following applies: read-out: Affinity at α2b adrenergic receptor, Ki. Here is the method:
Nonspecific binding was determined in the presence of 100 μM (−)-epinephrine. Bound radioactivity was determined by scintillation spectroscopy.

For series [4], the target named is T3, human H1 histaminergic receptor (Homo sapiens, UniProt P35367).
T3 construct: expressed in transfected cells; host or cells: HEK-293 cells (membranes)
In words: H1 histaminergic receptor competitive binding assay, [3H]pyrilamine. The following applies: for reduction of H1 histaminergic receptor affinity compared to AT: relative to AT; for reduction of H1 histaminergic receptor affinity compared to NT: relative to NT. Here is the method:
Protocol. The affinities of AT, NT, (+)-E-10-OH-NT and (−)-E-10-OH-NT for the H1 histaminergic receptor were assessed in a competitive binding assay. For the assay, [^3H]pyrilamine (3 nM) was incubated with various concentrations of test compound for 1 hour at 22° C. with membranes prepared from human embryonic kidney (HEK-293) cells heterologously expressing the cloned human H1 histaminergic receptor. Bound radioactivity was determined by scintillation spectroscopy. Non-specific binding was defined as the amount of binding that occurred in the presence of 1.0 μM unlabeled pyrilamine.

Series [5] addresses T4, 5HT uptake, rat brain synaptosomes (Rattus norvegicus, UniProt P31652).
T4 construct: into rat brain synaptosomes; from tissue; host or cells: rat brain synaptosomes
In words: Inhibition of [3H]-5HT uptake into synaptosomes. It counts as biochemical. The following applies: read-out: Monoamine Uptake Inhibition, 5HT, IC50.

For series [6], the system named is gastrointestinal transit in Swiss-Webster mice. The experiment in a line: Mouse gastrointestinal transit (charcoal meal) assay. The series is classed as in vivo. The following applies: relative to sterile water vehicle, 1, 2 or 4 hours before charcoal meal. Here is the method:
Protocol. The inhibitory effect of AT, NT and (−)-E-10-OH-NT were assessed in a rodent model of gastrointestinal transit. For the assay, male Swiss-Webster mice (20-25 g) were fasted overnight and treated with test compound or sterile water vehicle control 1, 2 or 4 hours before per oral administration of a charcoal meal consisting of charcoal:flour:water (1:2:8, w:w:w). Gastrointestinal transit was measured 25 minutes after the charcoal meal. (−)-E-10-OH-NT was administered as either the maleate or succinate salt; AT and NT were administered as hydrochloride salts; the dosage amounts are based on the amount of free base.
Gastrointestinal transit (GIT) was determined by removing the entire length of the small intestine and measuring how far the leading edge of the charcoal meal traveled in the small intestine. The percent GIT (% GIT) was determined by the following formula:
% GIT=[distance to charcoal leading edge (cm)/length of small intestine (cm)×100]

Where [7] appears, read: Example 4, read-out: Monoamine Transporter Affinity, NE, Ki.

Each structure is given as a SMILES string. Entries after “also recorded” stand apart in the source; their conditions may differ. Where two headings read alike, the source gives them in different places.

T3 sequence (P35367 whole entry): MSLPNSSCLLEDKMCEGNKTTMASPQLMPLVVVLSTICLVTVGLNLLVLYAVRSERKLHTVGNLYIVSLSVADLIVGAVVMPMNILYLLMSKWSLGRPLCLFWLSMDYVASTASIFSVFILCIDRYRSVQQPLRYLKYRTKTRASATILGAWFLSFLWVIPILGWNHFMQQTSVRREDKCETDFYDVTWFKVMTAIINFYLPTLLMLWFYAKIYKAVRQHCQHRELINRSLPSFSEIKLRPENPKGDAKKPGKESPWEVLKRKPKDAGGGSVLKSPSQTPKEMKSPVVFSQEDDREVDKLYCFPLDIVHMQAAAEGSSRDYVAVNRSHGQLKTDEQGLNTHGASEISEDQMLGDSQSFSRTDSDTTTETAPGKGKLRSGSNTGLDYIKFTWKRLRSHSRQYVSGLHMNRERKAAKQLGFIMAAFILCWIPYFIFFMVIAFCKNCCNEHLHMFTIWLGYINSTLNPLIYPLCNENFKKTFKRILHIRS
Sequence of human NE transporter (hNET) (P23975 whole entry): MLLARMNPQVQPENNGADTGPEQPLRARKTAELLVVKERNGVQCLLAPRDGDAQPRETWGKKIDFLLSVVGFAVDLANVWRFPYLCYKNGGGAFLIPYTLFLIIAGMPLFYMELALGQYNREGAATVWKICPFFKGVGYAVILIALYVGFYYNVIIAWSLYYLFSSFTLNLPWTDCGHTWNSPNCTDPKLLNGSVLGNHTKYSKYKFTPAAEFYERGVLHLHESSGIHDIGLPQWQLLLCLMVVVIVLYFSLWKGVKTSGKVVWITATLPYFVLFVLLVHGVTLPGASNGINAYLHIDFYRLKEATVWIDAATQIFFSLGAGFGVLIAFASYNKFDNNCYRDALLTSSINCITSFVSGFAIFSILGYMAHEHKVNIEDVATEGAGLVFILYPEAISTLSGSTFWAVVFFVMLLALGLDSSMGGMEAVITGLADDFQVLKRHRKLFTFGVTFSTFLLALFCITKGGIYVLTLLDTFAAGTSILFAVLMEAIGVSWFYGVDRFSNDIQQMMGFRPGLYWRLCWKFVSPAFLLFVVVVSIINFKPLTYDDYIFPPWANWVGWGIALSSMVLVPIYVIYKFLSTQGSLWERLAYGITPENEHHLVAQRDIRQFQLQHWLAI
T4 sequence (P31652 whole entry): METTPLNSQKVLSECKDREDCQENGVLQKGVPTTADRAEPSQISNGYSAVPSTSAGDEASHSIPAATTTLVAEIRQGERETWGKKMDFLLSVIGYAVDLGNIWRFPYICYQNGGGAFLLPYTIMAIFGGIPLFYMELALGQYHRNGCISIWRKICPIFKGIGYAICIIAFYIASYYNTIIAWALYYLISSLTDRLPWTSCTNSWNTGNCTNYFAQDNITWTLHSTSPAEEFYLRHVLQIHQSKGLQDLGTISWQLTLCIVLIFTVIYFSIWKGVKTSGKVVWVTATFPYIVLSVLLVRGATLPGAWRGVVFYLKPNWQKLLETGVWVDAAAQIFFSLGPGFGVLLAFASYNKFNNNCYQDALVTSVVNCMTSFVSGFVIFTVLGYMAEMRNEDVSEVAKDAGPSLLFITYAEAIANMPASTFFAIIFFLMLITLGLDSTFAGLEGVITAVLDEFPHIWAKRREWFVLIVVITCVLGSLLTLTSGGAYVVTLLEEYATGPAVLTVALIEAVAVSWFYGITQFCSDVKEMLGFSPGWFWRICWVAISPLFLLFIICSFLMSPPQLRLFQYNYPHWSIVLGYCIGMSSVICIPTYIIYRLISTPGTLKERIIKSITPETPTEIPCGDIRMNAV
T1 sequence (P11229 whole entry): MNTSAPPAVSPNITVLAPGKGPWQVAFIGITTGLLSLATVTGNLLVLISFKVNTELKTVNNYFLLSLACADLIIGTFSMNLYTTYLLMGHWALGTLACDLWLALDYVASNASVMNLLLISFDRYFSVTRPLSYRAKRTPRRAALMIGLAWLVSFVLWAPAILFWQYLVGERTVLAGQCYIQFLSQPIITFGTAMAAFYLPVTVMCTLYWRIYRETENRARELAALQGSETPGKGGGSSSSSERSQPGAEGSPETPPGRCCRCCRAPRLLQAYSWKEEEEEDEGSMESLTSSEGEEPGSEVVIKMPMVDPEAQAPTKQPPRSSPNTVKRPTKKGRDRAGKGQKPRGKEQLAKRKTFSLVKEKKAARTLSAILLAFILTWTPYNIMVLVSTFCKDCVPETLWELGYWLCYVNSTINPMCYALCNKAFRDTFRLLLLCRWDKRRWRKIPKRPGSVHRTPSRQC
T2 sequence (P18089 whole entry): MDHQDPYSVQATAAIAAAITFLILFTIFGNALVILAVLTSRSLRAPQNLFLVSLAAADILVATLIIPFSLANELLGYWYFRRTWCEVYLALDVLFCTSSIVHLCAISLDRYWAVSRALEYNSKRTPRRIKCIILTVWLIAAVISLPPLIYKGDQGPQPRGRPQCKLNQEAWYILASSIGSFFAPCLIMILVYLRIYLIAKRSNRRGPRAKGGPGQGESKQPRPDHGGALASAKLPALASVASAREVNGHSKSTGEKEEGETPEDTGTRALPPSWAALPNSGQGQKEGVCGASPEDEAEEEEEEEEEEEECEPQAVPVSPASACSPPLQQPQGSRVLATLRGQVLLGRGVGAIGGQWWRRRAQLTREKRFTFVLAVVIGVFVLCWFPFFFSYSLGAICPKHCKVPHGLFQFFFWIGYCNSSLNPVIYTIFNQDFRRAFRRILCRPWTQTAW

Consider `CNCC/C=C1\c2ccccc2C[C@H](O)c2ccccc21` (stereo in doubt) [(+)-E-10-OH-NT], for which the antiallodynic activity entry in series [1] is “comparable to that of the vehicle-only control”. Moreover, the Ki in series [2] (setting [7]) was determined as 52 nM; in series [2] (Example 14, read-out: NET Ki) it was 95 nM; in series [3], 710 nM; at α2b adrenergic receptor, 4200 nM. Also, the “reduction of H1 histaminergic receptor affinity compared to AT” value in series [4] came out at 220 fold. In series [4], the “reduction of H1 histaminergic receptor affinity compared to NT” value is on record as 40 fold. The IC50 in series [5] was 860 nM.

In the case of `CNCC/C=C1\c2ccccc2C[C@@H](O)c2ccccc21` (stereo in doubt) [(−)-E-10-OH-NT], the antiallodynic activity entry in series [1] was “statistically significant over that observed for the vehicle-treated control group; also recorded: greater than that observed for the vehicle-treated control group”. Also, in series [1] (p.o. and 60 mg/kg p.o.), the “antiallodynic activity, oral” value is “greater than that observed for the vehicle-treated control”. For the same compound, the Ki in series [2] (setting [7]) amounted to 44 nM; in series [2] (Example 14, read-out: NET Ki) it was 81 nM; in series [3] it was 410 nM; at α2b adrenergic receptor, 4300 nM. For the same compound, the “inhibition of gastrointestinal transit (% GIT)” value in series [6] is “markedly lower inhibition of transit as compared to both AT and NT”. Moreover, the “reduction of H1 histaminergic receptor affinity compared to AT” value in series [4] is reported as 220 fold. For the same compound, the “reduction of H1 histaminergic receptor affinity compared to NT” value in series [4] stood at 40 fold. The IC50 in series [5] is 4400 nM.
